Experimental data: BigSolDB 2.1

C[C@]12C=CC(=O)C=C1CC[C@@H]1[C@@H]2[C@@H](O)C[C@@]2(C)[C@H]1CC[C@]2(O)C(=O)CO
solubility (mole fraction)
Conditions | in DMF | in NMP | in acetonitrile | in n-dodecane | in n-hexadecane | in n-nonanol | in n-octanol | in n-pentanol | in sec-butanol | in water
293.2 K | 0.00818 | 0.00465 | 0.00219 | 1.44e-05 | 2.15e-05 | 0.000507 | 0.000316 | 0.000283 | 0.000248 | 1.05e-05
298.2 K | 0.00869 | 0.00525 | 0.00236 | 1.64e-05 | 2.35e-05 | 0.000643 | 0.000419 | 0.000358 | 0.000294 | 1.1e-05
303.2 K | 0.00943 | 0.0061 | 0.00255 | 1.87e-05 | 2.61e-05 | 0.000833 | 0.000568 | 0.000449 | 0.000362 | 1.25e-05
308.2 K | 0.0101 | 0.00688 | 0.0028 | 2.16e-05 | 3.01e-05 | 0.000999 | 0.000712 | 0.000559 | 0.000444 | 1.4e-05
313.2 K | 0.0108 | 0.00784 | 0.00305 | 2.45e-05 | 3.4e-05 | 0.00126 | 0.000913 | 0.000699 | 0.00053 | 1.6e-05
318.2 K | 0.0116 | 0.00881 | 0.00334 | 2.79e-05 | 3.88e-05 | 0.00151 | 0.00114 | 0.000881 | 0.000628 | 1.8e-05
323.2 K | 0.0125 | 0.00998 | 0.00364 | 3.28e-05 | 4.5e-05 | 0.00179 | 0.00141 | 0.0011 | 0.00075 | 2e-05
328.2 K | 0.0141 | 0.0114 | 0.00407 | 3.82e-05 | 5.41e-05 | 0.00215 | 0.0018 | 0.00139 | 0.000905 | 2.6e-05
